PubChem BioAssay AID1963851 (Molecular Pharmacology Branch, DTP, NCI, 2024)

Tested on: 188146-221-R-J1-PDC complex spheroid viability
Assay: Anticancer human tumor 188146-221-R-J1-PDC patient-derived colon adenocarcinoma cell line growth inhibition [POLQ]
Settings: for IC50: curve of first compound; for viability, T/C: stronger effect = lower value
How it was run: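 Three-cell-type spheroids modelling solid tumor plus stroma served as the readout system; POL inhibitors were tested individually and in combination, concentration ranges set by clinical Cmax where known.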

[1] = second compound 0.0316 µM, first compound 0.0316 µM
[2] = second compound 0.0316 µM, first compound 0.1 µM
[3] = second compound 0.0316 µM, first compound 0.316 µM
[4] = second compound 0.0316 µM, first compound 1 µM
[5] = second compound 0.0316 µM, first compound 3.16 µM
[6] = second compound 0.0316 µM, first compound 10 µM
[7] = second compound 0.1 µM, first compound 0.0316 µM
[8] = second compound 0.1 µM, first compound 0.1 µM
[9] = second compound 0.1 µM, first compound 0.316 µM
[10] = second compound 0.1 µM, first compound 1 µM
[11] = second compound 0.1 µM, first compound 3.16 µM
[12] = second compound 0.1 µM, first compound 10 µM
[13] = second compound 0.316 µM, first compound 0.0316 µM
[14] = second compound 0.316 µM, first compound 0.1 µM
[15] = second compound 0.316 µM, first compound 0.316 µM
[16] = second compound 0.316 µM, first compound 1 µM
[17] = second compound 0.316 µM, first compound 3.16 µM
[18] = second compound 0.316 µM, first compound 10 µM
[19] = second compound 1 µM, first compound 0.0316 µM
[20] = second compound 1 µM, first compound 0.1 µM
[21] = second compound 1 µM, first compound 0.316 µM
[22] = second compound 1 µM, first compound 1 µM
[23] = second compound 1 µM, first compound 3.16 µM
[24] = second compound 1 µM, first compound 10 µM
[25] = second compound 3.16 µM, first compound 0.0316 µM
[26] = second compound 3.16 µM, first compound 0.1 µM
[27] = second compound 3.16 µM, first compound 0.316 µM
[28] = second compound 3.16 µM, first compound 1 µM
[29] = second compound 3.16 µM, first compound 3.16 µM
[30] = second compound 3.16 µM, first compound 10 µM
[31] = second compound 10 µM, first compound 0.0316 µM
[32] = second compound 10 µM, first compound 0.1 µM
[33] = second compound 10 µM, first compound 0.316 µM
[34] = second compound 10 µM, first compound 1 µM
[35] = second compound 10 µM, first compound 3.16 µM
[36] = second compound 10 µM, first compound 10 µM
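Also: spheroids exposed to compounds for seven days.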
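For viability, T/C in this document: 100% = DMSO vehicle control viability.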

`CCc1cc2c(N3CCc4c(cc(Cn5ccnc5)cc4-c4cn(C)nc4C(F)(F)F)C3=O)ccnc2c(OC)n1` + COC1C(OC(N)=O)C(O)C(Oc2ccc3c(O)c(NC(=O)c4ccc(O)c(CC=C(C)C)c4)c(=O)oc3c2C)OC1(C)C was tested, and the IC50 (second compound 0.0316 µM) was 8.38 µM, the IC50 (second compound 0.1 µM) was > 10 µM and the IC50 (second compound 0.316 µM) was 9.83 µM. The IC50 (second compound 1 µM) was 6.45 µM, the IC50 (second compound 3.16 µM) was > 10 µM and the IC50 (second compound 10 µM) was > 10 µM. The viability, T/C [1] was 107%, the viability, T/C [2] was 93.5% and the viability, T/C [3] was 99.2%. For the same compound, the viability, T/C [4] was 96.2%, the viability, T/C [5] was 67.6% and the viability, T/C [6] was 46.8%. The viability, T/C [7] was 117%, the viability, T/C [8] was 108% and the viability, T/C [9] was 107%. For the same compound, the viability, T/C [10] was 99.7%, the viability, T/C [11] was 66.3% and the viability, T/C [12] was 62.6%. It also gave a viability, T/C [13] of 103%, a viability, T/C [14] of 108% and a viability, T/C [15] of 98.1%. For the same compound, the viability, T/C [16] was 93.7%, the viability, T/C [17] was 68.7% and the viability, T/C [18] was 49.9%. For the same compound, the viability, T/C [19] was 103%, the viability, T/C [20] was 97.2% and the viability, T/C [21] was 104%. For the same compound, the viability, T/C [22] was 104%, the viability, T/C [23] was 58.5% and the viability, T/C [24] was 44.7%. The viability, T/C [25] was 105%, the viability, T/C [26] was 111% and the viability, T/C [27] was 102%. It also gave a viability, T/C [28] of 83%, a viability, T/C [29] of 82.8% and a viability, T/C [30] of 55.3%. It also gave a viability, T/C [31] of 108%, a viability, T/C [32] of 95.6% and a viability, T/C [33] of 108%. For the same compound, the viability, T/C [34] was 85.5%, the viability, T/C [35] was 67.8% and the viability, T/C [36] was 59%.
`COc1ccc([C@@H](O)c2cc(-c3ncnc4cc(N5CCOCC5)ccc34)c(F)cc2Cl)nn1` + COC1C(OC(N)=O)C(O)C(Oc2ccc3c(O)c(NC(=O)c4ccc(O)c(CC=C(C)C)c4)c(=O)oc3c2C)OC1(C)C showed an IC50 (second compound 0.0316 µM) of 4.19 µM, an IC50 (second compound 0.1 µM) of 5.77 µM and an IC50 (second compound 0.316 µM) of 4.27 µM. It also gave an IC50 (second compound 1 µM) of 5.01 µM, an IC50 (second compound 3.16 µM) of 5.75 µM and an IC50 (second compound 10 µM) of 5.36 µM. The viability, T/C [1] was 105%, the viability, T/C [2] was 95.4% and the viability, T/C [3] was 81.4%. For the same compound, the viability, T/C [4] was 76.8%, the viability, T/C [5] was 61.2% and the viability, T/C [6] was 27.1%. It also gave a viability, T/C [7] of 92.8%, a viability, T/C [8] of 89.3% and a viability, T/C [9] of 96.2%. It also gave a viability, T/C [10] of 84.6%, a viability, T/C [11] of 65.3% and a viability, T/C [12] of 36.3%. It also gave a viability, T/C [13] of 107%, a viability, T/C [14] of 91.3% and a viability, T/C [15] of 102%. The viability, T/C [16] was 83.4%, the viability, T/C [17] was 58.7% and the viability, T/C [18] was 26.2%. For the same compound, the viability, T/C [19] was 96%, the viability, T/C [20] was 96.9% and the viability, T/C [21] was 97.5%. It also gave a viability, T/C [22] of 83.2%, a viability, T/C [23] of 65.3% and a viability, T/C [24] of 28.1%. The viability, T/C [25] was 108%, the viability, T/C [26] was 95.8% and the viability, T/C [27] was 97.8%. It also gave a viability, T/C [28] of 84.3%, a viability, T/C [29] of 72.1% and a viability, T/C [30] of 31.4%. It also gave a viability, T/C [31] of 108%, a viability, T/C [32] of 84.5% and a viability, T/C [33] of 113%. It also gave a viability, T/C [34] of 63.4%, a viability, T/C [35] of 75.7% and a viability, T/C [36] of 30%.
With `COc1cccc(OCCCN)c1-c1cc(Nc2cnc(C#N)cn2)n[nH]1` + Cc1cccc(N(C)C(=O)C2C(O)CCN2c2nc(C)cc(C(F)(F)F)c2C#N)c1 the IC50 (second compound 0.0316 µM) was 0.0555 µM, the IC50 (second compound 0.1 µM) was 0.0609 µM and the IC50 (second compound 0.316 µM) was 0.0515 µM. The IC50 (second compound 1 µM) was 0.0412 µM, the IC50 (second compound 3.16 µM) was 0.0473 µM and the IC50 (second compound 10 µM) was 0.0222 µM. The viability, T/C (second compound 0.0316 µM, first compound 0.00316 µM) was 100%, the viability, T/C (second compound 0.0316 µM, first compound 0.01 µM) was 103% and the viability, T/C [1] was 61.5%. For the same compound, the viability, T/C [2] was 36.1%, the viability, T/C [3] was 18.5% and the viability, T/C [4] was 12.1%. It also gave a viability, T/C (second compound 0.1 µM, first compound 0.00316 µM) of 99.9%, a viability, T/C (second compound 0.1 µM, first compound 0.01 µM) of 90% and a viability, T/C [7] of 75.8%. For the same compound, the viability, T/C [8] was 30.7%, the viability, T/C [9] was 15.9% and the viability, T/C [10] was 14.2%. The viability, T/C (second compound 0.316 µM, first compound 0.00316 µM) was 105%, the viability, T/C (second compound 0.316 µM, first compound 0.01 µM) was 89.7% and the viability, T/C [13] was 66%. For the same compound, the viability, T/C [14] was 29.6%, the viability, T/C [15] was 17.4% and the viability, T/C [16] was 13.6%. For the same compound, the viability, T/C (second compound 1 µM, first compound 0.00316 µM) was 113%, the viability, T/C (second compound 1 µM, first compound 0.01 µM) was 104% and the viability, T/C [19] was 54.4%. For the same compound, the viability, T/C [20] was 29%, the viability, T/C [21] was 17.1% and the viability, T/C [22] was 12.6%. For the same compound, the viability, T/C (second compound 3.16 µM, first compound 0.00316 µM) was 91.7%, the viability, T/C (second compound 3.16 µM, first compound 0.01 µM) was 82.1% and the viability, T/C [25] was 62.8%. It also gave a viability, T/C [26] of 27.7%, a viability, T/C [27] of 15.6% and a viability, T/C [28] of 14%. For the same compound, the viability, T/C (second compound 10 µM, first compound 0.00316 µM) was 96%, the viability, T/C (second compound 10 µM, first compound 0.01 µM) was 75.3% and the viability, T/C [31] was 37.3%. It also gave a viability, T/C [32] of 24.4%, a viability, T/C [33] of 16.9% and a viability, T/C [34] of 14.6%.
